Reference: patent US20040033273A1, “Withasol and methods of use” (AyurCore, Inc., priority 2001, published 2004)
Where two headings read alike, the source gives them in different places.

Columns and labels:
[1] = system: BALB/c mouse implanted with ascitic sarcoma, CP treated; details: for Hb / Platelet Count (×10^3mcl) / RBC Count (×10^6/mcl) / WBC Difference Count (%) Lymphocytes / WBC Difference Count (%) Polymorph / WBC Total Count (×10^3/mcl) / CF Titre (Log2) / HA Titre (Log2) / Difference in Weight (g) from Day 1 to 16: mean +/- SD
Method: This example describes dosing studies of WITHASOL in cyclophosphamide (CP) treated antigenically challenged BALB/c mouse animals implanted with ascitic sarcoma.
Following the established protocol, tumor was implanted on day 0. Test drugs as suspensions in 2.0% sterile CMC (vehicle) were prepared by Bio-Ved Laboratories. Antigenically sensitized (day 1) and challenged (day 10) mice, received test substances from day 1 to day 15 per oral route. Animals received appropriate vehicle (2.0% CMC) or CP (150 mg/kg) i.p. on day 11 and blood was collected on day 16. Body weights and gross observations were monitored during treatment.
Four doses, 400 mg/kg, 200 mg/kg, 100 mg/kg and 50 mg/kg of WITHASOL coded as R-1, R-2, R-3 and R-4, respectively, were used for this study. Decoding was done after the study was completed.
Data analysis was carried out using ANOVA single factor @<0.05 for comparison of the groups.

[2] = system: BALB/c mouse with ascitic sarcoma (S-180)
Excerpt: A study was then undertaken to determine the kinetics of cyclophosphamide treatment with respect to myelosuppression and immunosuppression. This step four aspect of the protocol establishes a time response curve for cyclophosphamide and determines optimal time for collection of blood samples and evaluation of hematological and serological parameters under the aforementioned conditions.
Mice were antigenically challenged with 0.5 cc of RBC suspension (1.0×10^8 cells/cc), intraperitoneally on day 1 as previously described. Mice from all groups were sensitized with RBC and a challenge dose was given on day 10.
Antibody titres were estimated using 96 well, U-bottom microtiter plates, double diluting serum samples and using 10% Human RBC suspension and complement (guinea pig serum).

[3] = system: BALB/c mouse implanted with ascitic sarcoma (S-180), CP treated; details: for Hb / Platelet Count (×10^3/mcl) / RBC Count (×10^6/mcl) / WBC Difference Count (%) Lymphocytes / WBC Difference Count (%) Polymorph / WBC Total Count (×10^3/mcl) / CF Titre (Log2) / HA Titre (Log2) / Difference in Weight (g) from Day 1 to 16: mean +/- SD
[4] = system: BALB/c mouse with ascitic sarcoma (S-180); details: for survival rate: CP 150 mg/kg ip on day 11, compared with the other dose regimens
[5] = Tumor +, CP +: CP 150 mg/kg ip day 11, WITHASOL po day 1-15 at 400 (R-1), 200 (R-2), 100 (R-3), 50 (R-4) mg/kg or vehicle (CP alone), blood day 16
[6] = Tumor +, CP +: CP 150 mg/kg ip day 11, WITHASOL po day 1-15 at 400 (R-1), 200 (R-2), 100 (R-3), 50 (R-4) mg/kg or vehicle (CP alone), day 16
[7] = Tumor −, CP +, vehicle: CP 150 mg/kg ip day 11, blood day 16
[8] = Tumor −, CP +, vehicle: CP 150 mg/kg ip day 11, day 16
[9] = Tumor −, CP +, vehicle: CP 150 mg/kg ip day 11
[10] = groups I and II: CP 150 mg/kg ip day 11 in tumor-free animals, day 16
[11] = groups III and IV: CP 150 mg/kg ip day 11 in tumor-bearing animals
[12] = groups III and IV: CP 150 mg/kg ip day 11 in tumor-bearing animals, day 16
[13] = CP 150 mg/Kg ip day 11 vs vehicle, days 13, 15, 17, 19 and 21
[14] = Tumor +, CP +: CP 150 mg/kg ip day 11, coded drug 100 mg/kg (vehicle for CP alone) po day 1-15, blood day 16
[15] = Tumor +, CP +: CP 150 mg/kg ip day 11, coded drug 100 mg/kg (vehicle for CP alone) po day 1-15, serum day 16
[16] = Tumor −, CP +, vehicle: CP 150 mg/kg ip day 11, serum day 16
[17] = groups I and II: CP 150 mg/kg ip day 11 in tumor free animals, day 16
[18] = groups I and II: CP 3.0 mg/kg po days 4 to 19 vs vehicle, blood day 20
[19] = groups III and IV: CP 100 mg/kg ip days 7, 9, 11 vs vehicle, blood day 20
[20] = groups V and VI: CP 150 mg/kg ip day 11 vs vehicle, blood day 20

## O=P1(N(CCCl)CCCl)NCCCO1 (stereo not shown) [CP, cyclophosphamide]
[1]; Tumor +, CP + groups: CP 150 mg/kg ip day 11, WITHASOL po day 1-15 at 400 (R-1), 200 (R-2), 100 (R-3), 50 (R-4) mg/kg or vehicle (CP alone)
  Survival on Day 16 (Day of Bleeding): No. of Animals Survived: 8
[1]; [5]
  Hb: 12.8 ± 1.03 g/dL
  Platelet Count (×10^3mcl): 906.0 +/− 312.76 ×10^3mcl
  RBC Count (×10^6/mcl): 3.79 +/− 0.46 ×10^6/mcl
  WBC Difference Count (%) Lymphocytes: 4.19 +/− 8.70%
  WBC Difference Count (%) Polymorph: 58.1 +/− 8.70%
  WBC Total Count (×10^3/mcl): 6.2 +/− 2.17 ×10^3/mcl
[1]; [6]
  CF Titre (Log2): 3.5 +/− 0.53 Log2
  HA Titre (Log2): 3.3 +/− 0.89 Log2
[1]; Tumor +, CP +: CP 150 mg/kg ip day 11, WITHASOL po day 1-15 at 400 (R-1), 200 (R-2), 100 (R-3), 50 (R-4) mg/kg or vehicle (CP alone)
  Difference in Weight (g) from Day 1 to 16: 4.9 ± 2.36 g
[1]; Tumor −, CP +, vehicle (group II)
  Survival on Day 16 (Day of Bleeding): No. of Animals Survived: 10
[1]; [7]
  Hb: 12.9 ± 1.40 g/dL
  Platelet Count (×10^3mcl): 1170.2 +/− 152.33 ×10^3mcl
  RBC Count (×10^6/mcl): 4.04 +/− 0.54 ×10^6/mcl
  WBC Difference Count (%) Lymphocytes: 76.7 +/− 4.35%
  WBC Difference Count (%) Polymorph: 23.3 +/− 4.35%
  WBC Total Count (×10^3/mcl): 3.6 +/− 0.67 ×10^3/mcl
[1]; [8]
  CF Titre (Log2): 4.0 +/− 0.82 Log2
  HA Titre (Log2): 4.4 +/− 0.52 Log2
[1]; [9]
  Difference in Weight (g) from Day 1 to 16: 0.4 ± 0.52 g
[1]; groups I and II: CP 150 mg/kg ip day 11 in tumor-free animals
  change in body weights: decreased
[1]; [10]
  change in HA antibody titres: decreased
  change in HL antibody titres: decreased
  change in hemoglobin content: decreased
  change in platelet counts: increased
  change in red cell counts: decreased
  change in white cell differential counts: no significant change
  change in white cell total counts: decreased
[1]; [11]
  change in body weights: decreased
[1]; [12]
  change in HA antibody titres: decreased
  change in HL antibody titres: decreased
  change in hemoglobin content: no significant change
  change in lymphocyte percentage: increased
  change in platelet counts: no significant change
  change in polymorph percentage: decrease
  change in red cell counts: no significant change
  change in white cell total counts: decrease
[2]; CP 150 mg/Kg ip day 11, day after tumor implantation
  time of maximum myelosuppressive and immunosuppressive effect: day 15, or in between day 15 and day 17
[2]; CP 150 mg/Kg ip day 11 vs vehicle
  change in platelet counts: unaffected
[2]; [13]
  change in hemagglutinating antibody (HA) titers: decrease
  change in hemolytic antibody titers (complement fixing-CF): decrease
[2]; CP 150 mg/Kg ip day 11 vs vehicle, on day 13 and on day 15
  change in white blood cell counts: significantly decreased
[2]; CP 150 mg/Kg ip day 11 vs vehicle, on day 17
  change in hemoglobin content: significant decrease
[2]; CP 150 mg/Kg ip day 11 vs vehicle, on day 19 (P<0.09)
  change in red blood cell counts: increased
[2]; after a few days of cyclophosphamide treatment (150 mg/Kg ip day 11), animals died from tumor regrowth
  tumor relapse: Tumor relapse was observed
[2]; single cyclophosphamide dose of 150 mg/Kg ip on day 11
  tumor regression: regression of tumor
[3]; [14]
  Hb: 11.07 ± 3.812 g/dL
  Platelet Count (×10^3/mcl): 614.17 +/− 287.466 ×10^3/mcl
  RBC Count (×10^6/mcl): 3.54 +/− 1.332 ×10^6/mcl
  WBC Difference Count (%) Lymphocytes: 58.18 +/− 8.634%
  WBC Difference Count (%) Polymorph: 41.42 +/− 8.634%
  WBC Total Count (×10^3/mcl): 4.53 +/− 0.797 ×10^3/mcl
[3]; [15]
  CF Titre (Log2): 1.83 +/− 0.408 Log2
  HA Titre (Log2): 2.17 +/− 0.837 Log2
[3]; Tumor +, CP +: S-180 bearing antigen-challenged mice, CP 150 mg/kg ip day 11, coded drug 100 mg/kg (vehicle for CP alone) po day 1-15
  Difference in Weight (g) from Day 1 to 16: -0.83 ± 2.563 g
[3]; [7]
  Hb: 13.8 ± 1.103 g/dL
  Platelet Count (×10^3/mcl): 966.33 +/− 324.879 ×10^3/mcl
  RBC Count (×10^6/mcl): 4.37 +/− 0.718 ×10^6/mcl
  WBC Difference Count (%) Lymphocytes: 63.73 +/− 2.7897%
  WBC Difference Count (%) Polymorph: 36.2 +/− 2.7897%
  WBC Total Count (×10^3/mcl): 3.8 +/− 1.226 ×10^3/mcl
[3]; [16]
  CF Titre (Log2): 1.00 Log2
  HA Titre (Log2): 1.5 +/− 5.48 Log2
[3]; [9]
  Difference in Weight (g) from Day 1 to 16: -0.5 ± 0.837 g
[3]; groups I and II: CP 150 mg/kg ip day 11 in tumor free animals
  change in body weights: decrease
[3]; [17]
  change in HA antibody titers: decreased
  change in HL antibody titers: decreased
  change in hemoglobin content: No significant change
  change in lymphocyte percent: decreased
  change in platelet counts: No significant change
  change in polymorph percent: Increased
  change in red cell counts: lowered
  change in white cell total counts: lowered
[3]; [11]
  change in body weight: decreased
[3]; [12]
  change in HA antibody titers: decreased
  change in HL antibody titers: decreased
  change in hemoglobin content: No significant change
  change in lymphocyte percentage: increase
  change in platelet counts: Decreased
  change in polymorph percentage: Decreased
  change in red cell counts: No significant change
  change in white counts: Decreased
[4]
  survival rate: maximum survival rate
[4]; listed as cyclophosphamide
  survival rate: greatest survival rate
[4]; all three CP doses (3.0 mg/kg po days 4-19; 100 mg/kg ip days 7, 9, 11; 150 mg/kg ip day 11) vs vehicle, t test
  change in weight of animals: significant decrease
[4]; [18]
  change in hemoglobin content: no significant change
  change in lymphocytes: no significant change
  change in monocyte counts: significantly increased
  change in neutrophil counts: significantly lowered
  change in platelet counts: no significant change
  change in red cell counts: no significant change
  change in total white cell counts: significantly lowered
[4]; [19]
  change in hemoglobin content: no significant change
  change in platelet counts: no significant change
  change in red cell counts: no significant change
  change in white cell differential counts: no significant change
  change in white cell total counts: no significant change
[4]; [20]
  change in hemoglobin content: no significant change
  change in monocytes: no significant change
  change in neutrophils: significant increase
  change in platelet counts: no significant change
  change in red cell counts: no significant change
  change in white cell counts: significant increase
